Experimental data: patent publication US20230027066A1 (Urovant Sciences GmbH, priority 2019, published 2023)
“And” between values parts separate entries of the source, which are not always exact repeats. Equal entries are not always repeated.

Experiment: Phase 1 ABPM study, ambulatory blood pressure and heart rate in OAB subjects, 28 days
Type: in vivo, human
Description: The objectives and endpoints were as described below. “Mean daytime” ABPM endpoints are calculated as the mean of all valid ABPM readings while the subject was awake during the 24-hour monitoring session. “Mean 24 hr” ABPM endpoints are calculated as the mean of all valid ABPM readings during the 24 hr monitoring session.
For the analysis of the ABPM endpoints (CFB to Day 29 of systolic and diastolic blood pressure, and heart rate), a generalized linear model (GLM) was used. […] The analysis model for each efficacy endpoint included terms for treatment, age group (≤55 vs >55 years), sex (Male vs Female), and pre-existing hypertension (Yes vs No), and baseline score.
Primary inferences were drawn from treatment differences for the CFB at Day 29 from the GLM. […] To test the primary hypothesis in Section 85, the upper limit of the two-sided 90% confidence interval was compared to 3.5, and the null hypothesis was rejected if the upper limit was strictly less than 3.5.
The 24-mean ambulatory baseline for systolic and diastolic blood pressure, and heart rate was the arithmetic mean of all valid measurements between the time of cuff-fitting on Day −1 to cuff-removal on Day 1. The 24-hour mean at Day 29 was arithmetic mean of all valid measurements between the time of cuff-fitting on Day 28 to cuff removal on Day 29.
The maximum SBP, DBP and HR in the tmax window at baseline was the maximum of the hourly means of valid measurements from 0.5 to 6.5 hours after the time of cuff fitting on Day −1. On Day 28, the maximum SBP, DBP and HR in the tmax window was the maximum of the hourly means of valid measurements from 0.5 to 6.5 hours after dose.
The mean daytime ambulatory baseline for systolic and diastolic blood pressure, and heart rate was the arithmetic mean of all measurements taken during the time interval in which the subject was awake. The same definition was applied to Day 29 measurements.

[1] = vibegron 75 mg/day, 4 weeks, full analysis set

Compound: O=C(Nc1ccc(C[C@@H]2CC[C@H]([C@H](O)c3ccccc3)N2)cc1)[C@@H]1CCc2nccc(=O)n21 [Vibegron, (6S)-N-[4-[[(2S,5R)−5-[(R)-hydroxy(phenyl)methyl]pyrrolidin−2-yl]methyl]phenyl]−4-oxo−7,8-dihydro−6H-pyrrolo[1,2-a]pyrimidine−6-carboxamide]
- ABPM Max (0.5-6.5 h) DBP Change from Baseline to Day 28, LSMean (75 mg, FAS): 0.63 mmHg
- ABPM Max (0.5-6.5 h) DBP Change from Baseline to Day 28, Treatment Difference Vibegron-Placebo (75 mg, FAS): 1.16 mmHg
- ABPM Max (0.5-6.5 h) HR Change from Baseline to Day 28, LSMean (75 mg, FAS): 1.76 bpm
- ABPM Max (0.5-6.5 h) HR Change from Baseline to Day 28, Treatment Difference Vibegron-Placebo (75 mg, FAS): 1.48 bpm
- ABPM Max (0.5-6.5 h) SBP Change from Baseline to Day 28, LSMean (75 mg, FAS): 1.96 mmHg
- ABPM Max (0.5-6.5 h) SBP Change from Baseline to Day 28, Treatment Difference Vibegron-Placebo (75 mg, FAS): 1.67 mmHg
- ABPM Mean 24 H DBP Change from Baseline to Day 28, LSMean (75 mg, FAS): 0.51 mmHg
- ABPM Mean 24 H DBP Change from Baseline to Day 28, Treatment Difference Vibegron-Placebo (75 mg, FAS): −0.19 mmHg
- ABPM Mean 24 H HR Change from Baseline to Day 28, LSMean (75 mg, FAS): 0.80 bpm
- ABPM Mean 24 H HR Change from Baseline to Day 28, Treatment Difference Vibegron-Placebo (75 mg, FAS): 0.96 bpm
- ABPM Mean 24 H SBP Change from Baseline to Day 28, LSMean (75 mg, FAS): 0.60 mmHg
- ABPM Mean 24 H SBP Change from Baseline to Day 28, Treatment Difference Vibegron-Placebo (75 mg, FAS): 0.57 mmHg
- ABPM Mean Daytime DBP Change from Baseline to Day 28, LSMean (75 mg, FAS): 0.50 mmHg
- ABPM Mean Daytime DBP Change from Baseline to Day 28, Treatment Difference Vibegron-Placebo (75 mg, FAS): −0.04 mmHg
- ABPM Mean Daytime HR Change from Baseline to Day 28, LSMean (75 mg, FAS): 1.08 bpm
- ABPM Mean Daytime HR Change from Baseline to Day 28, Treatment Difference Vibegron-Placebo (75 mg, FAS): 0.88 bpm
- Mean Daytime ABPM SBP Change from Baseline to Day 28, LSMean (75 mg, FAS): 0.82 mm Hg
- Mean Daytime ABPM SBP Change from Baseline to Day 28, Treatment Difference Vibegron-Placebo (75 mg, FAS): 0.81 mm Hg
- Change from Baseline to Day 28 for Maximum (0.5 to 6.5 hrs) ABPM SBP, LSMean (75 mg, PPS): 1.0 mm Hg
- Change from Baseline to Day 28 for Maximum (0.5 to 6.5 hrs) ABPM SBP, Treatment Difference Vibegron-Placebo (75 mg, PPS): 1.05 mm Hg
- Mean Daytime ABPM SBP Change from Baseline to Day 28, LSMean (75 mg, PPS): 0.19 mm Hg
- Mean Daytime ABPM SBP Change from Baseline to Day 28, Treatment Difference Vibegron-Placebo (75 mg, PPS): 0.41 mm Hg
- ABPM DBP Day 28 change from baseline ≥10 mmHg, subjects (Maximum (0.5-6.5 h), FAS): 9 (9.8) n (%)
- ABPM HR Day 28 change from baseline ≥10 bpm, subjects (Maximum (0.5-6.5 h), FAS): 20 (21.7) n (%)
- ABPM SBP Day 28 change from baseline ≥15 mmHg, subjects (Maximum (0.5-6.5 h), FAS): 6 (6.5) n (%)
- ABPM DBP Day 28 change from baseline ≥10 mmHg, subjects (Mean 24-hour, FAS): 1 (1.0) n (%)
- ABPM HR Day 28 change from baseline ≥10 bpm, subjects (Mean 24-hour, FAS): 3 (3.1) n (%)
- ABPM SBP Day 28 change from baseline ≥15 mmHg, subjects (Mean 24-hour, FAS): 2 (2.1) n (%)
- ABPM DBP Day 28 change from baseline ≥10 mmHg, subjects (Mean Daytime, FAS): 2 (2.1) n (%)
- ABPM HR Day 28 change from baseline ≥10 bpm, subjects (Mean Daytime, FAS): 3 (3.1) n (%)
- ABPM SBP Day 28 change from baseline ≥15 mmHg, subjects (Mean Daytime, FAS): 2 (2.1) n (%)
- effects on blood pressure (overall conclusion of ABPM study) (vibegron 75 mg, 28 days): no clinically relevant effects on blood pressure
- mean change of daytime ambulatory systolic blood pressure from baseline, difference from placebo (primary endpoint) (vibegron 75 mg, 28 days): less than 1 mm Hg
- mean change from baseline in daytime ambulatory systolic blood pressure (vibegron 75 mg/day, 4-week treatment, full analysis set): 0.89 mmHg
- mean change of 24-hour ambulatory diastolic blood pressure from baseline, lower than placebo by (vibegron 75 mg/day, 4 weeks): 0.19 mmHg
- mean change of 24-hour ambulatory heart rate from baseline (vibegron 75 mg/day, 4 weeks): about 0.80
- mean change of 24-hour ambulatory heart rate from baseline, higher than placebo by (vibegron 75 mg/day, 4 weeks): 0.96 bpm
- mean change of 24-hour ambulatory systolic blood pressure from baseline, higher than placebo by (vibegron 75 mg/day, 4 weeks): 0.57 mmHg
- mean change of daytime ambulatory diastolic blood pressure from baseline, lower than placebo by (vibegron 75 mg/day, 4 weeks): 0.04 mmHg
- mean change of daytime ambulatory heart rate from baseline (vibegron 75 mg/day, 4 weeks): about 1.08 bpm
- mean change of daytime ambulatory heart rate from baseline, higher than placebo by (vibegron 75 mg/day, 4 weeks): 0.88 bpm
- mean increase in 24-hour ambulatory diastolic blood pressure from baseline (vibegron 75 mg/day, 4 weeks): 0.51 mmHg
- mean increase in 24-hour ambulatory systolic blood pressure from baseline (vibegron 75 mg/day, 4 weeks): 0.61 mmHg and 0.60 mmHg
- mean change of daytime ambulatory systolic blood pressure from baseline, higher than placebo by [1]: 0.81 mmHg
- mean daytime ambulatory systolic upper bound of the 90% confidence interval (Table 103) [1]: 1.11 mm Hg
- mean daytime ambulatory systolic blood pressure, upper bound of 90% confidence interval of difference from placebo (vibegron 75 mg/day, 4 weeks, full analysis set (Table 101)): 2.49 mm Hg
- mean change of daytime ambulatory systolic blood pressure from baseline, higher than placebo by (vibegron 75 mg/day, 4 weeks, per protocol set): 0.41 mmHg
- mean daytime ambulatory systolic blood pressure, upper bound of 90% confidence interval of difference from placebo (vibegron 75 mg/day, 4 weeks, per protocol set (Table 102)): 2 mm Hg
